This note sets out measurements from patent US10155743B2, “Glutarimide derivatives, use thereof, pharmaceutical composition based thereon and methods for producing glutarimide derivatives” (OBSCHESTVO S OGRANICHENNOI OTVETSTVENNOSTIYU …, priority 2013, dated 2018).

Test [1] relates to human respiratory syncytial virus (strain A2, ATCC VR-1540). It counts as in vivo. The conditions noted are these: Balb/c mice, cyclophosphan 100 mg/kg 5 days before infection; 30 mg/kg once daily for 5 days from 24 h; score from possible 4; M ± SD, n = 5.
In test [2] the test system is influenza virus strain A/California/07/09 (H1N1) pdm09. The test can be described thus: animal or person. The conditions noted are these: unidentified influenza virus, H1N1, in Mus musculus, po, 336 h, read-out: Mortality rate, %. Format: in vivo, white outbred female mice.
In test [3] the test system is mucous membrane of nasal passages, formalin-induced acute rhinosinusitis. The test can be described thus: Acute rhinosinusitis rat model (induced by intranasal 7.5% formalin solution). Format: in vivo, Wistar rats. The note with it: rats. The procedure:
Morphological studies of histologic preparations were conducted with a Leica DMLS light-optical microscope (Leica Microsystems, Germany). Micro-morphometric assessment was performed by using an ocular micrometer on a Leica DMLB microscope.
Acute rhinosinusitis was induced by intranasal administration of 20 μl of 7.5% formalin solution (aqueous solution comprising 40% formaldehyde, 8% methyl alcohol, and 52% water) to each nasal passage of rats.
Administration of formalin to rat nasal passages leads to the dissemination of inflammation to adjacent tissues, resulting in a clinical pattern similar to the symptoms of rhinosinusitis in a human.
After an acclimatization period, the following groups were formed: • intact animals administered intragastrically a saline solution in an amount of 0.2 ml, the induction of acute rhinosinusitis was not performed; • a control group consisted of the animals administered intragastrically a saline solution in an amount of 0.2 ml for 7 days after induction of acute rhinosinusitis; • animals administered intramuscularly dexamethasone at a dose of 0.33 mg/kg for 7 days after induction of acute rhinosinusitis; and • animals administered the tested compounds at a dose of 27 mg/kg for 7 days after induction of acute rhinosinusitis.
Clinical observation of each animal was performed every day at least twice daily.
In the experiment with Wistar rats, the induction of acute rhinosinusitis by administration of a 7.5% formalin solution to nasal passages caused in the control group of animals pronounced pathological changes characterizing the development of an acute inflammation process in the nasal mucous. The caused pathology was characterized by congestion, hyperplasia, focal necrosis of the nasal meatus mucous membrane, an increased number of caliciform cells, pronounced infiltration by mononuclear cells and leucocytes, and mucus hyperproduction by submucosal glands.
The mucous and submucous membranes of both nasal passages (respiratory and olfactory regions) of the experimental animals were subjected to a morphological analysis to evaluate a specific activity of the compounds.
For microscopic examination, the sections were stained with hematoxylin and eosin. Detection of acid mukopolysaccharides, the production of which is increased in an inflammation, was performed by histochemical staining of the preparation with Alcian Blue (pH 2.5). The comparison and histological evaluation of changes were performed versus the group of intact rats.
After slaughter, the gross appearance of inflammation in the nasal passages was studied in each animal. Histological, hystochemical and morphological studies of rats were intended to evaluate the following characteristics of nasal passages: congestion of the mucous membrane; hyperplasia and necrosis of nasal epithelium, the number of caliciform cells within 1 mm of the mucous membrane of the nasal septum, and the character of inflammation.
In this study, the efficiency of the mucociliary system was evaluated by the number of caliciform cells and, as a consequence, microscopic changes in the mucous membrane of the nasal passages.

For test [4], the system named is hRV strain (GKV reg. No. 2730). Briefly: Antiviral activity against rhinovirus in mice (body weight, lung weight, infectious titer in lungs). It counts as in vivo.
The mark [5] stands for this setting: tested compounds 27 mg/kg for 7 days, count out of n of the group.
Where [6] appears, read: 30 mg/kg orally once daily, day 2 after infection.
The mark [7] stands for this setting: 30 mg/kg orally once daily, day 3 after infection.
Where [8] appears, read: 30 mg/kg orally once daily, day 4 after infection.
Where [9] appears, read: 30 mg/kg orally, difference control minus experimental group.
Setting [10] is: 30 mg/kg orally, lung suspension titrated in Hela cell culture.

Take `O=C1CCCC(=O)N1CCc1cnc[nH]1` [Compound 1, 1-(2-(1H-imidazol-4-yl)ethyl)piperidine-2,6-dione]: in test [1], the “Degree of pulmonary edema on day 5 after infection, score” value is 1.3 ± 0.27 score. Further, in test [2], the mortality at 30 mg/kg was found to be 35%. In addition, the “The number of caliciform cells within 1 mm of the mucous membrane of the nasal septum” value in test [3] (tested compounds 27 mg/kg for 7 days after induction, M ± m) stood at 31.2 ± 1.2. For the same molecule, in test [3] (setting [5]), the “Macroscopic changes in the mucous membrane of nasal passages: Muculent or mucopurulent catarrh (number of animals)” value is 13 and the “Macroscopic changes in the mucous membrane of nasal passages: Without changes (number of animals)” value is reported as 5. Further, in test [4] (30 mg/kg orally once daily for 5 days starting 12 hours after infection, day 0), the “Body weight of the mice after infection with hRV, day 0” value stood at 7.36 ± 0.97. For the same molecule, the “Body weight of the mice after infection with hRV, day 1” value in test [4] (30 mg/kg orally once daily, day 1 after infection) came to 8.2 ± 4.25. For the same molecule, in test [4] (setting [6]), the “Body weight of the mice after infection with hRV, day 2” value came to 13.03 ± 3.51 and the “Lung weight of the mice after infection with hRV, day 2” value was found to be 136.9 ± 5.93. Moreover, in test [4] (setting [7]), the “Body weight of the mice after infection with hRV, day 3” value is 13.47 ± 1.36 and the “Lung weight of the mice after infection with hRV, day 3” value came out at 140.8 ± 5.14. Besides, in test [4] (setting [8]), the “Body weight of the mice after infection with hRV, day 4” value came out at 13.99 ± 1.53 and the “Lung weight of the mice after infection with hRV, day 4” value stood at 128.2 ± 5.81. In addition, in test [4] (setting [9]), the “Suppression of the reproduction of the virus in mouse lungs, Δ lg, Day 2 after infection” value was 1.1 ± 0.49 Δ lg; the “Suppression of the reproduction of the virus in mouse lungs, Δ lg, Day 3 after infection” value is given as 1.7 ± 0.31 Δ lg; the “Suppression of the reproduction of the virus in mouse lungs, Δ lg, Day 4 after infection” value is listed as 2.18 ± 0.08 Δ lg. Moreover, in test [4] (setting [10]), the “Infectious titer of the virus in lungs, lg TCID50, Day 2 after infection” value is given as 2.9 ± 0.49 lg TCID50; the “Infectious titer of the virus in lungs, lg TCID50, Day 3 after infection” value was 0.8 ± 0.31 lg TCID50; the “Infectious titer of the virus in lungs, lg TCID50, Day 4 after infection” value was found to be 0.03 ± 0.08 lg TCID50.

Broadly, the mortality is the share of the test organisms that died.
